Measurements published in patent publication US20100267561A1, “HERBICIDAL PYRIDAZINONE DERIVATIVES” (priority 2007, published 2010).

Assays:
Format in all cases: in vivo
[1] = system: umbrella sedge (Cyperus difformis); experiment: Test B flooded paddy test plant response
How it was run: (§1)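 2-leaf plants; pots flooded 3 cm above soil; compound added to paddy water; depth maintained. Greenhouse 13–15 d. Visual rating vs controls, 0 (no effect) to 100 (complete control); dash = no result.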

[2] = system: barnyardgrass (Echinochloa crus-galli); experiment: Test B flooded paddy test plant response
How it was run: as §1

rice (Oryza sativa) = experiment: Test B flooded paddy test plant response
How it was run: as §1

[3] = system: ducksalad (Heteranthera limosa); experiment: Test B flooded paddy test plant response; conditions: Flood (flooded paddy test), scale 0 to 100, 0 no effect, 100 complete control
How it was run: as §1

[4] = system: wheat (Triticum aestivum); experiment: Test B pre-/postemergence plant response; conditions: for Wheat plant response rating: 8 g ai/ha
How it was run: (§2)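 Visual scoring from 0 (no effect) to 100 (complete control) against untreated controls was done 13 to 15 days after greenhouse treatment. Chemicals were formulated in a surfactant-containing non-phytotoxic solvent and applied to soil preemergence or to 1- to 4-leaf (2-18 cm) plants postemergence.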

wild oat (Avena fatua) = experiment: Test B pre-/postemergence plant response; conditions: for Oat, Wild plant response rating: 8 g ai/ha
How it was run: as §2

[5] = system: downy bromegrass (Bromus tectorum); experiment: Test B pre-/postemergence plant response; conditions: for Bromegrass, Downy plant response rating: 8 g ai/ha
How it was run: as §2

[6] = system: cocklebur (Xanthium strumarium); experiment: Test B pre-/postemergence plant response; conditions: for Cocklebur plant response rating: 8 g ai/ha
How it was run: as §2

[7] = system: velvetleaf (Abutilon theophrasti); experiment: Test B pre-/postemergence plant response; conditions: for Velvetleaf plant response rating: 8 g ai/ha
How it was run: as §2

[8] = system: large crabgrass (Digitaria sanguinalis); experiment: Test B pre-/postemergence plant response; conditions: for Crabgrass, Large plant response rating: 8 g ai/ha
How it was run: as §2

[9] = system: catchweed bedstraw (Galium aparine); experiment: Test B pre-/postemergence plant response; conditions: Preemergence, scale 0 to 100
How it was run: as §2

soybean (Glycine max) = experiment: Test B pre-/postemergence plant response; conditions: for Soybean plant response rating: 8 g ai/ha
How it was run: as §2

[10] = system: bermudagrass (Cynodon dactylon); experiment: Test B pre-/postemergence plant response; conditions: for Bermudagrass plant response rating: 8 g ai/ha
How it was run: as §2

[11] = system: woolly cupgrass (Eriochloa villosa); experiment: Test B pre-/postemergence plant response
How it was run: as §2

[12] = Flood (flooded paddy test), 62 g ai/ha, scale 0 to 100, 0 no effect, 100 complete control
[13] = Flood (flooded paddy test), 125 g ai/ha, scale 0 to 100, 0 no effect, 100 complete control
[14] = Flood (flooded paddy test), 250 g ai/ha, scale 0 to 100, 0 no effect, 100 complete control
[15] = Flood, 31 g ai/ha, scale 0 to 100
[16] = Postemergence, 16 g ai/ha, scale 0 to 100
[17] = Postemergence, 62 g ai/ha, scale 0 to 100, 0 no effect, 100 complete control
[18] = Preemergence, 16 g ai/ha, scale 0 to 100 (0 no effect, 100 complete control)
[19] = Preemergence, 31 g ai/ha, scale 0 to 100 (0 no effect, 100 complete control)
[20] = Preemergence, 62 g ai/ha, 0 to 100 scale, 0 no effect, 100 complete control
[21] = Postemergence, 31 g ai/ha, scale 0 to 100, 0 no effect, 100 complete control
[22] = Preemergence, 62 g ai/ha, scale 0 to 100
[23] = Preemergence, 31 g ai/ha, 0 to 100 scale, 0 no effect, 100 complete control

Cc1cc(-c2ccc(C(F)(F)F)c(F)c2)nn1-c1c(O)c(C(F)(F)F)nn(C)c1=O [Compound 44]
Plant response rating, Sedge, Umbrella [1, 12]: 0 | Plant response rating, Sedge, Umbrella [1, 13]: 20 | Plant response rating, Sedge, Umbrella [1, 14]: 30 | Plant response rating, Sedge, Umbrella [1, 15]: 0 | Plant response rating, Barnyardgrass [2, 12]: 0 | Plant response rating, Barnyardgrass [2, 13]: 30 | Plant response rating, Barnyardgrass [2, 14]: 50 | Plant response rating, Barnyardgrass [2, 15]: 0 | Plant response rating, Rice (rice (Oryza sativa); [12]): 15 | Plant response rating, Rice (rice (Oryza sativa); [13]): 20 | Plant response rating, Rice (rice (Oryza sativa); [14]): 40 | Plant response rating, Rice (rice (Oryza sativa); [15]): 0 | Plant response rating, Ducksalad ([3]; 62 g ai/ha): 0 | Plant response rating, Ducksalad ([3]; 125 g ai/ha): 70 | Plant response rating, Ducksalad ([3]; 250 g ai/ha): 70 | Wheat plant response rating ([4]; postemergence, 0-100 scale): 55 | Plant response rating, Wheat [4, 16]: 90 | Plant response rating, Wheat [4, 17]: 95 | Plant response rating, Wheat [4, 18]: 0 | Plant response rating, Wheat [4, 19]: 10 | Plant response rating, Wheat [4, 20]: 90 | Wheat plant response rating ([4]; Preemergence, scale 0 to 100): 0 | Oat, Wild plant response rating (wild oat (Avena fatua); postemergence, 0-100 scale): 90 | Plant response rating, Oat, Wild (wild oat (Avena fatua); [16]): 95 | Plant response rating, Oat, Wild (wild oat (Avena fatua); [21]): 100 | Plant response rating, Oat, Wild (wild oat (Avena fatua); [17]): 100 | Plant response rating, Oat, Wild (wild oat (Avena fatua); [18]): 80 | Plant response rating, Oat, Wild (wild oat (Avena fatua); [19]): 85 | Plant response rating, Oat, Wild (wild oat (Avena fatua); [22]): 90 | Oat, Wild plant response rating (wild oat (Avena fatua); Preemergence, scale 0 to 100): 25 | Bromegrass, Downy plant response rating ([5]; postemergence, 0-100 scale): 40 | Plant response rating, Bromegrass, Downy [5, 16]: 60 | Plant response rating, Bromegrass, Downy [5, 21]: 70 | Plant response rating, Bromegrass, Downy [5, 17]: 90 | Plant response rating, Bromegrass, Downy [5, 18]: 20 | Plant response rating, Bromegrass, Downy [5, 23]: 60 | Plant response rating, Bromegrass, Downy [5, 22]: 85 | Bromegrass, Downy plant response rating ([5]; Preemergence, scale 0 to 100): 0 | Cocklebur plant response rating ([6]; postemergence, 0-100 scale): 0 | Plant response rating, Cocklebur [6, 16]: 0 | Plant response rating, Cocklebur [6, 21]: 0 | Plant response rating, Cocklebur [6, 17]: 0 | Plant response rating, Cocklebur [6, 18]: 0 | Plant response rating, Cocklebur [6, 23]: 0 | Plant response rating, Cocklebur [6, 22]: 0 | Cocklebur plant response rating ([6]; Preemergence, scale 0 to 100): 0 | Velvetleaf plant response rating ([7]; postemergence, 0-100 scale): 0 | Plant response rating, Velvetleaf [7, 16]: 0 | Plant response rating, Velvetleaf [7, 17]: 0 | Plant response rating, Velvetleaf [7, 18]: 0 | Plant response rating, Velvetleaf [7, 19]: 0 | Plant response rating, Velvetleaf [7, 20]: 0 | Velvetleaf plant response rating ([7]; Preemergence, scale 0 to 100): 0 | Crabgrass, Large plant response rating ([8]; postemergence, 0-100 scale): 60 | Plant response rating, Crabgrass, Large [8, 16]: 65 | Plant response rating, Crabgrass, Large [8, 21]: 90 | Plant response rating, Crabgrass, Large [8, 17]: 98 | Plant response rating, Crabgrass, Large [8, 18]: 0 | Plant response rating, Crabgrass, Large [8, 23]: 0 | Plant response rating, Crabgrass, Large [8, 22]: 0 | Crabgrass, Large plant response rating ([8]; Preemergence, scale 0 to 100): 0 | Plant response rating, Galium ([9]; 62 g ai/ha): 0 | Galium plant response rating ([9]; 8 g ai/ha): 0 | Soybean plant response rating (soybean (Glycine max); postemergence, 0-100 scale): 0 | Plant response rating, Soybean (soybean (Glycine max); [16]): 0 | Plant response rating, Soybean (soybean (Glycine max); [17]): 0 | Plant response rating, Soybean (soybean (Glycine max); [19]): 70 | Plant response rating, Soybean (soybean (Glycine max); [22]): 90 | Soybean plant response rating (soybean (Glycine max); Preemergence, scale 0 to 100): 0 | Bermudagrass plant response rating ([10]; postemergence, 0-100 scale): 65 | Plant response rating, Bermudagrass [10, 16]: 90 | Plant response rating, Bermudagrass [10, 21]: 95 | Plant response rating, Bermudagrass [10, 17]: 100 | Bermudagrass plant response rating ([10]; Preemergence, scale 0 to 100 (0 no effect, 100 complete control)): 0 | Plant response rating, Bermudagrass [10, 18]: 0 | Plant response rating, Bermudagrass [10, 23]: 0 | Plant response rating, Bermudagrass [10, 22]: 0 | Cupgrass, Woolly plant response rating ([11]; 8 g ai/ha, postemergence, 0-100 scale): 98 | Plant response rating, Cupgrass, Woolly [11, 16]: 98 | Plant response rating, Cupgrass, Woolly [11, 21]: 100 | Plant response rating, Cupgrass, Woolly [11, 17]: 100 | Plant response rating, Cupgrass, Woolly [11, 18]: 0 | Plant response rating, Cupgrass, Woolly [11, 23]: 0 | Plant response rating, Cupgrass, Woolly [11, 22]: 100
